Results on 25 molecules are retold here after ChEMBL document CHEMBL3779848, “Effect of chlorine substituent on cytotoxic activities: Design and synthesis of systematically modified 2,4-diphenyl-5H-indeno[1,2-b]pyridines” (Bioorg Med Chem Lett, 2016).

One may read the inhibition as the percentage by which the read-out fell short of the control. The term IC50 denotes the point on the concentration scale where inhibition reaches its midpoint. A higher IC50 goes with weaker potency in that assay.

Counter-ions that a name gives are not always drawn.

Experiment [1] has as its target DNA topoisomerase 2-alpha (Homo sapiens) (UniProt P11388). Briefly: Inhibition of human recombinant DNA topoisomerase 2alpha at 100 uM assessed as relaxation of supercoiled DNA pBR322 after 30 mins by Agarose gel electrophoresis.
The subject of experiment [2] is HeLa. Nature of the experiment: Potency index, ratio of IC50 for adriamycin to IC50 for test compound for cytotoxicity against human HeLa cells. The format is functional.
Experiment [3] relates to HeLa. Nature of the experiment: Cytotoxicity against human HeLa cells after 3 days by CCK8 assay. The format is functional, cell-based. The following applies: 72 h. On the technique in general: Tetrazolium assays rely on reduction of a dye to a coloured formazan, in cell work by metabolically active cells.
The subject of experiment [4] is T47D. Nature of the experiment: Potency index, ratio of IC50 for adriamycin to IC50 for test compound for cytotoxicity against human T47D cells. In kind it is functional.
Experiment [5] relates to T47D. Briefly: Cytotoxicity against human T47D cells after 3 days by CCK8 assay. The conditions noted are these: 72 h. In kind it is functional, cell-based.
Experiment [6] addresses T1, DNA topoisomerase 1 (Homo sapiens) (UniProt P11387).
T1 sequence (whole entry): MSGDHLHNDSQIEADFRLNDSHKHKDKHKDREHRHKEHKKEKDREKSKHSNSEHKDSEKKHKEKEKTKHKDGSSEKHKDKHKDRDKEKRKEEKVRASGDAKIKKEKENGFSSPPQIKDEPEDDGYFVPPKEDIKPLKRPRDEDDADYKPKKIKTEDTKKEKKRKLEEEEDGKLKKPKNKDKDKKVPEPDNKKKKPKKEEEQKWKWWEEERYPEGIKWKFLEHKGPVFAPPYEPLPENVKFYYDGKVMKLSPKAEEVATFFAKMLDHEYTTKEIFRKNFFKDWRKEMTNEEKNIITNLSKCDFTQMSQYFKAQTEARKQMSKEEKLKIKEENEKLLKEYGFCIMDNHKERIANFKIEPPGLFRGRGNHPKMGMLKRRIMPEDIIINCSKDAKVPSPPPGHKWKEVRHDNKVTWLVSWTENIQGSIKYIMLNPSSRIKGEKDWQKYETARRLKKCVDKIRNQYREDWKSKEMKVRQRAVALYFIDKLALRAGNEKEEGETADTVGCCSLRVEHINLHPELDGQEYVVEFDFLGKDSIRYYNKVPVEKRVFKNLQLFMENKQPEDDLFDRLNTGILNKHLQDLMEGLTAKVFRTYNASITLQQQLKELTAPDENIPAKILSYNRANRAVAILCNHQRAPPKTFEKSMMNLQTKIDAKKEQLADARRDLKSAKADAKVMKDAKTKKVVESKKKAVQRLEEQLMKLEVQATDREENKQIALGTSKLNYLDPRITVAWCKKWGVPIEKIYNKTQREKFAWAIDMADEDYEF
Briefly: Inhibition of human recombinant DNA topoisomerase 1 at 100 uM assessed as relaxation of supercoiled DNA pBR322 after 30 mins by Agarose gel electrophoresis.

Experiment [7] in a line: Potency index, ratio of IC50 for adriamycin to IC50 for test compound for cytotoxicity against human HCT15 cells. In kind it is functional, HCT-15.
A short description of experiment [8]: Cytotoxicity against human HCT15 cells after 3 days by CCK8 assay. In kind it is functional, cell-based. The following applies: HCT-15, 72 h.

Sequence of DNA topoisomerase 2-alpha (Homo sapiens) (P11388 whole entry): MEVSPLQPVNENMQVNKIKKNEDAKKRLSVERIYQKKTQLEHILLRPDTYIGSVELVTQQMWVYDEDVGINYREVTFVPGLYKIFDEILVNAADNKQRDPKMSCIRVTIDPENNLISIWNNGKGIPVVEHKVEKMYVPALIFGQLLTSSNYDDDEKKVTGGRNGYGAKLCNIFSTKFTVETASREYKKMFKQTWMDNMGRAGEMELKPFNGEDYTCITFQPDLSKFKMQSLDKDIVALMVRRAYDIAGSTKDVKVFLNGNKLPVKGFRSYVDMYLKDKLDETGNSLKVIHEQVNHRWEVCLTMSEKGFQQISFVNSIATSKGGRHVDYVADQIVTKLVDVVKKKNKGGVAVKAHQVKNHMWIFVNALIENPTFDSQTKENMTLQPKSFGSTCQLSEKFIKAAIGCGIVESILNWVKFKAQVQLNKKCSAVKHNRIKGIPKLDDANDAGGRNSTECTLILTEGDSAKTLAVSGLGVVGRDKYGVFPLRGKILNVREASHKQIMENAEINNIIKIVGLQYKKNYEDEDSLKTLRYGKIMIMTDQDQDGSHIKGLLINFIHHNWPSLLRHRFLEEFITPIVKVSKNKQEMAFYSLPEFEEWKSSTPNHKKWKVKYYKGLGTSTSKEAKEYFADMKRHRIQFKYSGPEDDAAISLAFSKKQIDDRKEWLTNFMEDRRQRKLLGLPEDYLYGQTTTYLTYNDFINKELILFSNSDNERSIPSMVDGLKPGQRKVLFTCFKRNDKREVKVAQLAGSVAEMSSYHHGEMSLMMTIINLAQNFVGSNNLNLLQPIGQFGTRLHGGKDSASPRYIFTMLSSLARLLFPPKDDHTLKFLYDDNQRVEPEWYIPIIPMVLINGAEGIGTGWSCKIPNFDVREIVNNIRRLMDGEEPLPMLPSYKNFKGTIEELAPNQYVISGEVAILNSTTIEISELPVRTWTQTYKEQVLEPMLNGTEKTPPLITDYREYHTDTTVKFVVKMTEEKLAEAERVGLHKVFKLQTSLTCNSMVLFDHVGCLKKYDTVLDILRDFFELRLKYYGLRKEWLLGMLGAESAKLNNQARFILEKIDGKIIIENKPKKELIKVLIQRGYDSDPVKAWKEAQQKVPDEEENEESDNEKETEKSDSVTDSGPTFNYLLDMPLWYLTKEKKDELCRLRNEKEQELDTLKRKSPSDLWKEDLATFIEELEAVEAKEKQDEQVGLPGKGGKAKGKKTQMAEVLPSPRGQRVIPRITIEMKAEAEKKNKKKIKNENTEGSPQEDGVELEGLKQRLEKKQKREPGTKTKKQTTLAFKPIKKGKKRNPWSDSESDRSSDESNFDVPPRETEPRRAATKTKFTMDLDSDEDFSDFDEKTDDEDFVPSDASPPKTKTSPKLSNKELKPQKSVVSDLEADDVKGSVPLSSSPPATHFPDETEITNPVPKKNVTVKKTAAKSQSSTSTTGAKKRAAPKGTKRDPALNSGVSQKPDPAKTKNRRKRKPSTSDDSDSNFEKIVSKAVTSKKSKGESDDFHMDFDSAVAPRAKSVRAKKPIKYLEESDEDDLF

For the molecule `Oc1ccc(-c2cc(-c3ccc(Cl)cc3)c3c(n2)-c2ccccc2C3)cc1`, the inhibition is 8.5% in experiment [1] and 19.1% in experiment [6]. Further, the “Ratio IC50” value came to 0.33 in the experiment on HeLa [2], 1.67 with T47D [4] and 0.11 in experiment [7]. The results for the IC50 (in the experiment with HeLa [3]; in the experiment with T47D [5]; in experiment [8]) were 2450 nM, 880 nM and 930 nM, respectively.
In the case of `Oc1ccccc1-c1cc(-c2ccccc2Cl)nc2c1Cc1ccccc1-2`, the figures for the inhibition in experiment [1] and in experiment [6] were 1.9% and 0.8%, respectively. The figures for the IC50 (in the experiment on HeLa [3]; with T47D [5]; in experiment [8]) were 7010 nM, 6640 nM and 6230 nM, respectively.
On to `Oc1ccc(-c2cc(-c3cccc(Cl)c3)nc3c2Cc2ccccc2-3)cc1`, for which the inhibition is 3% in experiment [1] and 0% in experiment [6]. In addition, the “Ratio IC50” value with HeLa [2] came out at 0.16; with T47D [4] it was 1.03; in experiment [7], 0.32. In addition, the IC50 with HeLa [3] was determined as 5040 nM; with T47D [5], 1420 nM; in experiment [8] it was 310 nM.
Regarding `Oc1ccccc1-c1cc(-c2ccccc2)nc2c1Cc1ccccc1-2`, the figures for the inhibition in experiment [1] and in experiment [6] were 69.6% and 15.1%, respectively. The IC50 (with HeLa [3]; in the experiment with T47D [5]; in experiment [8]) was above 50000 nM in each case.
In the case of `c1ccc(-c2cc(-c3ccccc3)c3c(n2)-c2ccccc2C3)cc1`, the inhibition came out at 17.8% in experiment [1] and 0% in experiment [6]. Moreover, the IC50 in the experiment with HeLa [3] is 17300 nM; in the experiment with T47D [5], 26800 nM; in experiment [8], above 50000 nM.
On to `Oc1ccccc1-c1cc(-c2ccccc2)c2c(n1)-c1ccccc1C2`, for which the inhibition was found to be 36.4% in experiment [1] and 1.3% in experiment [6]. The IC50 (with HeLa [3]; with T47D [5]; in experiment [8]) was above 50000 nM in each case.
Regarding `Oc1cccc(-c2cc(-c3cccc(Cl)c3)c3c(n2)-c2ccccc2C3)c1`, the inhibition in experiment [1] is 4.4%; in experiment [6], 7.5%. Also, the “Ratio IC50” value with HeLa [2] is listed as 0.43; in the experiment on T47D [4], 0.79; in experiment [7] it was 0.06. In addition, the IC50 in the experiment with HeLa [3] stood at 1910 nM; with T47D [5] it was 1850 nM; in experiment [8] it was 1590 nM.
In the case of `Oc1cccc(-c2cc(-c3ccccc3Cl)c3c(n2)-c2ccccc2C3)c1`, the values for the inhibition in experiment [1] and in experiment [6] were 6.7% and 29.3%, respectively. For the same molecule, the “Ratio IC50” value with HeLa [2] was 0.31; with T47D [4] it was 0.67; in experiment [7], 0.08. The IC50 in the experiment on HeLa [3] is 2650 nM; in the experiment on T47D [5], 2190 nM; in experiment [8] it was 1170 nM.
`COc1cccc2c1C(=O)c1c(O)c3c(c(O)c1C2=O)C[C@@](O)(C(=O)CO)C[C@@H]3O[C@H]1C[C@H](N)[C@H](O)[C@H](C)O1` [DOXORUBICIN HYDROCHLORIDE] displayed an IC50 with HeLa [3] of 820 nM.
As for `Oc1ccccc1-c1cc(-c2ccc(Cl)cc2)c2c(n1)-c1ccccc1C2`, the inhibition in experiment [1] was determined as 2.8%; in experiment [6], 8.3%. The IC50 (in the experiment with HeLa [3]; with T47D [5]; in experiment [8]) was above 50000 nM in each case.
For `Oc1ccccc1-c1cc(-c2cccc(Cl)c2)nc2c1Cc1ccccc1-2`, the inhibition is 5.4% in experiment [1] and 0% in experiment [6]. Also, the IC50 was 17100 nM in the experiment with HeLa [3], above 50000 nM with T47D [5] and 30300 nM in experiment [8].
`Oc1ccccc1-c1cc(-c2cccc(Cl)c2)c2c(n1)-c1ccccc1C2`: the inhibition in experiment [1] was determined as 2.8%; in experiment [6] it was 1.1%. The IC50 (in the experiment with HeLa [3]; with T47D [5]; in experiment [8]) was above 50000 nM throughout.
As for `Oc1cccc(-c2cc(-c3ccc(Cl)cc3)nc3c2Cc2ccccc2-3)c1`, the inhibition came to 3.9% in experiment [1] and 0% in experiment [6]. Moreover, the “Ratio IC50” value in the experiment with HeLa [2] was found to be 0.12; in the experiment with T47D [4] it was 1.08; in experiment [7], 0.05. The IC50 in the experiment with HeLa [3] was 6580 nM; with T47D [5], 1360 nM; in experiment [8], 1880 nM.
As for `CC[C@@]1(O)C(=O)OCc2c1cc1n(c2=O)Cc2cc3ccccc3nc2-1` [CAMPTOTHECIN], the concentration for half-maximal inhibition (IC50) with HeLa [3] stood at 590 nM; in the experiment on T47D [5], 11200 nM; in experiment [8], 1290 nM.
`Oc1ccccc1-c1cc(-c2ccccc2Cl)c2c(n1)-c1ccccc1C2`: the inhibition was determined as 4.8% in experiment [1] and 0% in experiment [6]. Further, the IC50 (in the experiment with HeLa [3]; in the experiment with T47D [5]; in experiment [8]) was above 50000 nM in each case.
As for `Oc1ccccc1-c1cc(-c2ccc(Cl)cc2)nc2c1Cc1ccccc1-2`, the inhibition was 2.7% in experiment [1] and 0% in experiment [6]. In addition, the IC50 (in the experiment on HeLa [3]; in the experiment with T47D [5]; in experiment [8]) was above 50000 nM throughout.
As to `Oc1ccc(-c2cc(-c3ccccc3Cl)c3c(n2)-c2ccccc2C3)cc1`, the inhibition was 1.6% in experiment [1] and 15.5% in experiment [6]. The “Ratio IC50” value in the experiment on HeLa [2] was found to be 0.24; in the experiment on T47D [4], 0.9; in experiment [7], 0.12. Further, the IC50 with HeLa [3] was 3410 nM; with T47D [5], 1630 nM; in experiment [8] it was 840 nM.
In the case of `Oc1ccc(-c2cc(-c3ccccc3Cl)nc3c2Cc2ccccc2-3)cc1`, the inhibition was found to be 3.5% in experiment [1] and 0% in experiment [6]. Besides, the figures for the “Ratio IC50” value (in the experiment on HeLa [2]; in the experiment with T47D [4]; in experiment [7]) were 0.3, 1.86 and 0.05, respectively. Further, the IC50 in the experiment on HeLa [3] was found to be 2700 nM; in the experiment with T47D [5], 790 nM; in experiment [8] it was 1820 nM.
On to `Oc1ccc(-c2cc(-c3ccc(Cl)cc3)nc3c2Cc2ccccc2-3)cc1`, for which the figures for the inhibition in experiment [1] and in experiment [6] were 3.2% and 1.4%, respectively. Moreover, the “Ratio IC50” value in the experiment with HeLa [2] is 0.19; with T47D [4], 1.16; in experiment [7], 0.11. Besides, the IC50 with HeLa [3] was determined as 4340 nM; in the experiment with T47D [5], 1270 nM; in experiment [8], 870 nM.
Consider `Oc1cccc(-c2cc(-c3ccccc3)nc3c2Cc2ccccc2-3)c1`, for which the inhibition in experiment [1] was 70.5%; in experiment [6] it was 20.6%. Moreover, the figures for the “Ratio IC50” value (in the experiment with HeLa [2]; in the experiment with T47D [4]; in experiment [7]) were 0.22, 0.86 and 0.91, respectively. The IC50 with HeLa [3] is 4000 nM; in the experiment with T47D [5] it was 1550 nM; in experiment [8] it was 1350 nM.
For the molecule `Oc1cccc(-c2cc(-c3cccc(Cl)c3)nc3c2Cc2ccccc2-3)c1`, the inhibition in experiment [1] was 3.2%; in experiment [6], 0%. Also, the “Ratio IC50” value in the experiment on HeLa [2] is given as 0.18; in the experiment with T47D [4], 1.11; in experiment [7] it was 0.03. Besides, the IC50 in the experiment on HeLa [3] worked out at 4590 nM; in the experiment on T47D [5], 1320 nM; in experiment [8], 3090 nM.
Consider `Oc1cccc(-c2cc(-c3ccccc3)c3c(n2)-c2ccccc2C3)c1`, for which the inhibition in experiment [1] was determined as 76%; in experiment [6] it was 2.3%. Also, the “Ratio IC50” value in the experiment with HeLa [2] is recorded as 0.29; with T47D [4] it was 0.34; in experiment [7], 0.45. Besides, the IC50 stood at 2990 nM in the experiment on HeLa [3], 3930 nM in the experiment on T47D [5] and 2710 nM in experiment [8].
Take `Oc1cccc(-c2cc(-c3ccc(Cl)cc3)c3c(n2)-c2ccccc2C3)c1`: the inhibition is 3.8% in experiment [1] and 5.8% in experiment [6]. In addition, the “Ratio IC50” value with HeLa [2] is recorded as 0.36; with T47D [4] it was 0.99; in experiment [7], 0.05. Besides, the results for the IC50 (in the experiment with HeLa [3]; in the experiment on T47D [5]; in experiment [8]) were 2270 nM, 1490 nM and 2090 nM, respectively.
As for `Oc1ccc(-c2cc(-c3ccccc3)c3c(n2)-c2ccccc2C3)cc1`, the inhibition in experiment [1] amounted to 80.6%; in experiment [6], 5.2%. The “Ratio IC50” value in the experiment on HeLa [2] stood at 0.22; in the experiment with T47D [4], 0.63; in experiment [7] it was 0.61. In addition, the IC50 turned out to be 3930 nM in the experiment with HeLa [3], 2100 nM in the experiment with T47D [5] and 2010 nM in experiment [8].
With `COc1cc([C@@H]2c3cc4c(cc3[C@@H](O[C@@H]3O[C@@H]5CO[C@@H](C)O[C@H]5[C@H](O)[C@H]3O)[C@H]3COC(=O)[C@H]23)OCO4)cc(OC)c1O` [ETOPOSIDE], the IC50 with HeLa [3] was 180 nM; in the experiment on T47D [5], 1840 nM; in experiment [8], 2820 nM.
